According to patent publication US9439909B2, “Compositions and methods for sensitizing a neoplastic cell to radiation” (The Broad Institute, Inc., priority 2013, dated 2016):

Legend:
NRF2 protein [1] = assay: Immunoblot of NRF2 protein level in LC-1/SQSF cells; format: cell-based, human; conditions: for expression of endogenous mutant NRF2 compared with control shNTC: Doxycycline induction 24 hours
Experimental: (§1) Anti-NRF2 antibody (ab31163) was from Abcam (Cambridge, Mass.) (17). NVP-BKM120 and TGX-221 was from Selleck (Houston, Tex.). LY 294002 was from Cell Signaling Technology (Beverly, Mass.).
(§2) Construction of the retroviral expression vector of short hairpin RNA (shRNA) was carried out as described (18). The shRNA-targeted sequences were as follows: NRF2-1 shRNA, […] (SEQ ID NO: 1); NRF2-2 shRNA, […] (SEQ ID NO: 2). The control vector contains nontargeting shRNA sequence. The entry vectors were recombined with pLKO-Tet-ON-puro by LR reactions (Invitrogen, Carlsbad, Calif.), in accordance with the manufacturer's instructions. After infection (multiplicity of infection >1), cells were selected and maintained in the presence of 1 μg/ml puromycin.

NRF2 protein [2] = assay: Immunoblot of NRF2 protein level in RERF-LC-AI cells; format: cell-based, human; conditions: for NRF2 protein level / expression of endogenous NRF2 compared with control shNTC: RERF-LC-AI, Doxycycline induction 24 hours
Experimental: as §1, §2

RERF-LC-AI cells = assay: Clonogenic survival, RERF-LC-AI cells; format: cell-based, human
Experimental: (§3) Lung SqCC cell lines from the Cancer Cell Line Encyclopedia (CCLE) were authenticated per CCLE protocol (14) and grown in recommended media supplemented with 10% fetal bovine serum (Benchmark, Calif.) and 100 U/mL Penicillin, 100 μg/mL of Streptomycin, and 292 μg/mL L-Glutamine (Corning, N.Y.). All cultures were maintained at 37° C. in a humidified 5% CO2 atmosphere and tested to ensure absence of Mycoplasma. Plates were treated with 0 Gy (no radiation) or with 1-10 Gy of γ-radiation delivered at 0.91 Gy/min with a ^137Cs source using a GammaCell 40 Exactor (Best Theratronics; Ontario, Canada).
(§4) Cells were plated at appropriate dilutions, irradiated, and incubated for 10-14 days for colony formation. For chemical radiosensitization measurements, drug was added 24 hours prior to irradiation. Colonies were fixed in a solution of acetic acid and methanol 1:3 (v/v) and stained with 0.5% (w/v) crystal violet as previously described (15). A colony was defined to consist of 50 cells or greater. Colonies were counted digitally using ImageJ software as described (16). Integration of survival as a function of dose, or area under the curve, was calculated using Prism, GraphPad Software (La Jolla, Calif.).

LC-1/SQSF cells [3] = assay: Clonogenic survival, LC-1/SQSF cells; format: cell-based, human
Experimental: as §3, §4

LC-1/SQSF cells [4] = test system: LC-1/SQSF cells
Experimental: (§5) To test this, LC-1/SQSF cells were generated that stably express hNQO1-ARE-luc, containing cis-acting antioxidant response regulatory elements in the 5′-flanking region of NAD(P)H:quinone oxidoreductase (NQO1) (19), a gene induced by NRF2. Luciferase activity was measured in LC-1/SQSF, hNQO1-ARE-luc cells after incubation with LY 294002, NVP-BKM120, or TGX-221. […] Cellular viability was measured after incubation with LY 294002, NVP-BKM120, or TGX-221.

LC-1/SQSF cells [5] = assay: Cellular viability of LC-1/SQSF cells after incubation with PI3K inhibitors; conditions: LC-1/SQSF, 48 hours
Experimental: as §5

NRF2 activity = assay: hNQO1-ARE-luc luciferase reporter assay in LC-1/SQSF cells; format: cell-based, human; conditions: 24 hours
Experimental: LC-1/SQSF, hNQO1-ARE-luc cells were produced as follows. hQR41-ARE sequence (19) and firefly luciferase-PEST sequence (Promega, WI) was cloned into plenti6/BLOCK-iT-DEST lentivirus backbone (Invitrogen, NY) at the restriction sites of NcoI and Hind III. The engineered region was sequence verified and matched 100% of the expected sequences. The plasmid was stably infected to the LC-1/SQSF cell line, selected and maintained in 5 μg/ml Blasticidin in the recommended media.

A549 cells = assay: Clonogenic survival, A549 cells; format: cell-based, human; conditions: A549, drug 24 hours before radiation
Experimental: as §3, §4

[6] = Cellular viability of LC-1/SQSF cells after incubation with PI3K inhibitors; conditions: human, LC-1/SQSF cells stably expressing hNQO1-ARE-luc
Experimental: as §5

HCC15 cells = assay: Clonogenic survival, HCC15 cells; format: cell-based, human; conditions: HCC15 (KEAP1 mutant), drug 24 hours before radiation
Experimental: as §3, §4

SQ-1 cells = assay: Clonogenic survival, SQ-1 cells; format: cell-based, human; conditions: SQ-1 (NFE2L2 and KEAP1 wild type), drug 24 hours before radiation
Experimental: as §3, §4

shNRF2-2: lentiviral-inducible NRF2-targeted shRNA, target sequence GCTCCTACTGTGATGTGAAAT (SEQ ID NO: 2) (the letters are possibly those of the target site)
expression of endogenous mutant NRF2 compared with control shNTC (NRF2 protein [1]): significantly reduced | NRF2 protein level / expression of endogenous NRF2 compared with control shNTC (NRF2 protein [2]): significantly reduced | radiation sensitivity, clonogenic survival (RERF-LC-AI cells; RERF-LC-AI, 2, 4, 6 Gy after Doxycycline 24 hours): did not result in any observable decrease | clonogenic capacity (RERF-LC-AI cells; RERF-LC-AI, no radiation): did not result in any observable decrease | clonogenic capacity after lentiviral-induction (LC-1/SQSF cells [3]; LC-1/SQSF, no radiation): significantly diminished clonogenic capacity

Cc1cc(C(C)Nc2ccccc2)c2nc(N3CCOCC3)cc(=O)n2c1 (stereo not drawn) [TGX-221]
viability (LC-1/SQSF cells [4]): > 90% | decrement in cellular viability (LC-1/SQSF cells [5]): mirrored the effect on NRF2 activity

Nc1cc(C(F)(F)F)c(-c2cc(N3CCOCC3)nc(N3CCOCC3)n2)cn1 [NVP-BKM120, 5-(2,6-dimorpholinopyrimidin-4-yl)-4-(trifluoromethyl)pyridin-2-amine]
decrement in NRF2 protein level (NRF2 protein [1]; 24 hours): significant decrement in NRF2 protein level | synergy between drug and radiation, clonogenic survival (RERF-LC-AI cells; RERF-LC-AI (NFE2L2 and KEAP1 wild type), drug 24 hours before radiation): significantly less synergy | clonogenic survival with drug and radiation compared to control (0 Gy) (LC-1/SQSF cells [3]; LC-1/SQSF (NFE2L2 mutant), drug 24 hours before radiation): synergistic decrement in clonogenic survival | decrement in NRF2 activity (luciferase activity) (NRF2 activity): significant decrement in NRF2 activity | clonogenic survival with drug and radiation compared to control (0 Gy) (A549 cells): synergistic decrement in clonogenic survival | viability at 24 h [6]: > 90% | decrement in cellular viability (LC-1/SQSF cells [5]): mirrored the effect on NRF2 activity | clonogenic survival with drug and radiation compared to control (0 Gy) (HCC15 cells): synergistic decrement in clonogenic survival | synergy between drug and radiation, clonogenic survival (SQ-1 cells): significantly less synergy

O=c1cc(N2CCOCC2)oc2c(-c3ccccc3)cccc12 [LY 294002]
viability at 24 h [6]: > 90%

CC(C)(C)c1cc(O)ccc1O [tBHQ, tert-Butylhydroquinone]
NRF2 stabilization (NRF2 protein level) (NRF2 protein [2]; RERF-LC-AI cells, -/+ tBHQ): NRF2 stabilization

shNRF2-1: lentiviral-inducible NRF2-targeted shRNA, target sequence AGAGCAAGATTTAGATCATTT (SEQ ID NO: 1) (the letters are possibly those of the target site)
expression of endogenous mutant NRF2 compared with control shNTC (NRF2 protein [1]): significantly reduced | NRF2 protein level / expression of endogenous NRF2 compared with control shNTC (NRF2 protein [2]): minimal affect | sensitivity to radiation versus control shNTC cells, clonogenic survival (LC-1/SQSF cells [3]; LC-1/SQSF, 2, 4, 6 Gy after Doxycycline 24 hours): more sensitive to radiation
